Literature values, collected in patent US9192591B2, “Method and composition for treating alzheimer-type dementia” (priority 2008, dated 2015).

Tests used:
[1] = test system: patients with dementias of the Alzheimer type; details: donepezil 5-10 mg per day; rivastigmine 1-4 and 6-12 mg per day; galantamine 8-32 mg per day
[2] = test system: patients with Alzheimer's disease; details: skin patches replacing immediate release tablets
[3] = test system: patients
[4] = test system: patients with Alzheimer's disease treated with tacrine; details: propantheline 7.5 mg to 15 mg four times a day

COc1cc2c(cc1OC)C(=O)C(CC1CCN(Cc3ccccc3)CC1)C2 (racemic) [donepezil, (±)-2,3-dihydro-5,6-dimethoxy-2-[[1-(phenylmethyl)-4-piperidinyl]methyl]-1H-inden-1-one]
benefits on cognitive and global measures relevant to dementia [1]: small, but statistically significant, benefits

CCN(C)C(=O)Oc1cccc([C@H](C)N(C)C)c1 [rivastigmine, (S)—N-Ethyl-N-methyl-3-[1-(dimethylamino)ethyl]-phenyl carbamate]
amount of cognitive improvement and side effects on doubling the dose [2]: significantly increased the amount of cognitive improvement in patients with Alzheimer's disease without increasing side effects | patients who discontinued because of vomiting ([3]; compared to less than 1% on placebo): Five | patients in whom weight declined ([3]; during rivastigmine therapy): 25% | patients reporting loss of appetite ([3]; in vivo): 17% | patients who become nauseated ([3]; oral 6-12 mg/day): About half | patients who vomit at least once ([3]; oral 6-12 mg/day): about one-third | patients with mild or moderate vomiting ([3]; rivastigmine-treated patients): 14% | patients with severe vomiting ([3]; rivastigmine-treated patients): 2% | benefits on cognitive and global measures relevant to dementia [1]: small, but statistically significant, benefits

CC(C)[N+](C)(CCOC(=O)C1c2ccccc2Oc2ccccc21)C(C)C [propantheline]
effect on peripheral cholinergic gastrointestinal side effects of tacrine (cramping, nausea, vomiting, diarrhea) [4]: ameliorated
